Calls of active or inactive are those of the source. No cut-off for these calls is given here.
How the values were obtained:
[1] = molecular target: T1, Glucocorticoid receptor (Homo sapiens) (UniProt P04150); test: Agonist activity at glucocorticoid receptor in human foreskin fibroblasts assessed as IL-1-mediated IL-6 synthesis at […] after 24 hrs relative to dexamethasone
T1 sequence (whole entry): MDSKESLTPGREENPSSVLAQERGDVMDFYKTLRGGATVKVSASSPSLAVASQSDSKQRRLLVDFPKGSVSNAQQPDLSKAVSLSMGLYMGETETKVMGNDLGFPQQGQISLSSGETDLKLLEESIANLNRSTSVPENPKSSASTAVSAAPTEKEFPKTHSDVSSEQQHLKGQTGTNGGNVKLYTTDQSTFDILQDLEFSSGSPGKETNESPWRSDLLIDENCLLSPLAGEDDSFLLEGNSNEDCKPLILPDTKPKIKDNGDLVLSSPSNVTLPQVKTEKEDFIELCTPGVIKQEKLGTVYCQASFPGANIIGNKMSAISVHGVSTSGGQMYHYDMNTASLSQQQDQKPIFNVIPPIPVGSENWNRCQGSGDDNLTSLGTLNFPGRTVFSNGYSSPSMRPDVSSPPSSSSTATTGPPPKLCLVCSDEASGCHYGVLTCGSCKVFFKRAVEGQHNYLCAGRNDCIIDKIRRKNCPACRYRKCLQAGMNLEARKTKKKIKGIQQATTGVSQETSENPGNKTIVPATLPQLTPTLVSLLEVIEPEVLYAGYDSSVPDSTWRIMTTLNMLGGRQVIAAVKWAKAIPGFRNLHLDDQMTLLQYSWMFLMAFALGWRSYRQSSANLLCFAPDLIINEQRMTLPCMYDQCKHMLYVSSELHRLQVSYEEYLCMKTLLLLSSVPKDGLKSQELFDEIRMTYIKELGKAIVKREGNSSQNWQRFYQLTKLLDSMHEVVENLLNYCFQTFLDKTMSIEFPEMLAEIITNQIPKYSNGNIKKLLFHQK

Glucocorticoid receptor [2] = molecular target: T2, Glucocorticoid receptor (Homo sapiens, UniProt P04150); test: Agonist activity at glucocorticoid receptor in human foreskin fibroblasts assessed as IL-1-mediated IL-6 synthesis after 24 hrs
T2 sequence (P04150 whole entry): T1 sequence (whole entry)

[3] = molecular target: T3, Mineralocorticoid receptor (Homo sapiens, UniProt P08235); test: Inhibition of mineralocorticoid receptor (unknown origin) expressed in baculovirus-infected insect cells by fluorescence polarization assay
T3 sequence (P08235 whole entry): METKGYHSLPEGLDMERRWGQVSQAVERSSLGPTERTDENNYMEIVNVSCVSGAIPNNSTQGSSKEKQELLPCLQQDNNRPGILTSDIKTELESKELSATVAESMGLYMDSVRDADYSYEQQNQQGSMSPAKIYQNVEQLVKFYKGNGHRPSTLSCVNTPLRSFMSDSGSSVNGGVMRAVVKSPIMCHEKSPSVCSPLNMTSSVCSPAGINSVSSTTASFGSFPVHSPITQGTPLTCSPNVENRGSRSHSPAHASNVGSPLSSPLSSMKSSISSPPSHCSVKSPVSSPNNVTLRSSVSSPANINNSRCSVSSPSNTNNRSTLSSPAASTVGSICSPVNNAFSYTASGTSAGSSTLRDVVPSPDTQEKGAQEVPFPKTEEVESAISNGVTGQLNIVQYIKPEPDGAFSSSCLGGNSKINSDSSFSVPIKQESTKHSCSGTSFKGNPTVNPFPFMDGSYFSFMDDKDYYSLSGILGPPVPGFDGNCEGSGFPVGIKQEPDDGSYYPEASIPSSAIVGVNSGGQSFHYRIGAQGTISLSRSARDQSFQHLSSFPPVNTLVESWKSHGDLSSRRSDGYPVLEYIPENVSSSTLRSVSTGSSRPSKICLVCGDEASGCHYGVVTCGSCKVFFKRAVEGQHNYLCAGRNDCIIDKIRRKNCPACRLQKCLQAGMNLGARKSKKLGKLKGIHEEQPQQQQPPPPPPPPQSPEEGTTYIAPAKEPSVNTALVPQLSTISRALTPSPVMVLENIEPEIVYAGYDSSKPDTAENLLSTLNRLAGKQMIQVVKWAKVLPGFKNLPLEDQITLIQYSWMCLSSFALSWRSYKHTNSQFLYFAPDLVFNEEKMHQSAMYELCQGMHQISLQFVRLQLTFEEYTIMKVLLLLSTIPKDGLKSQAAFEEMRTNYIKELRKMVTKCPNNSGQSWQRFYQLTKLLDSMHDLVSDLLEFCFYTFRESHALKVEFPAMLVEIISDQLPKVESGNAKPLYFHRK

Progesterone receptor = molecular target: T4, Progesterone receptor (Homo sapiens, UniProt P06401); test: Inhibition of progesterone receptor (unknown origin) expressed in baculovirus-infected insect cells by fluorescence polarization assay
T4 sequence (P06401 whole entry): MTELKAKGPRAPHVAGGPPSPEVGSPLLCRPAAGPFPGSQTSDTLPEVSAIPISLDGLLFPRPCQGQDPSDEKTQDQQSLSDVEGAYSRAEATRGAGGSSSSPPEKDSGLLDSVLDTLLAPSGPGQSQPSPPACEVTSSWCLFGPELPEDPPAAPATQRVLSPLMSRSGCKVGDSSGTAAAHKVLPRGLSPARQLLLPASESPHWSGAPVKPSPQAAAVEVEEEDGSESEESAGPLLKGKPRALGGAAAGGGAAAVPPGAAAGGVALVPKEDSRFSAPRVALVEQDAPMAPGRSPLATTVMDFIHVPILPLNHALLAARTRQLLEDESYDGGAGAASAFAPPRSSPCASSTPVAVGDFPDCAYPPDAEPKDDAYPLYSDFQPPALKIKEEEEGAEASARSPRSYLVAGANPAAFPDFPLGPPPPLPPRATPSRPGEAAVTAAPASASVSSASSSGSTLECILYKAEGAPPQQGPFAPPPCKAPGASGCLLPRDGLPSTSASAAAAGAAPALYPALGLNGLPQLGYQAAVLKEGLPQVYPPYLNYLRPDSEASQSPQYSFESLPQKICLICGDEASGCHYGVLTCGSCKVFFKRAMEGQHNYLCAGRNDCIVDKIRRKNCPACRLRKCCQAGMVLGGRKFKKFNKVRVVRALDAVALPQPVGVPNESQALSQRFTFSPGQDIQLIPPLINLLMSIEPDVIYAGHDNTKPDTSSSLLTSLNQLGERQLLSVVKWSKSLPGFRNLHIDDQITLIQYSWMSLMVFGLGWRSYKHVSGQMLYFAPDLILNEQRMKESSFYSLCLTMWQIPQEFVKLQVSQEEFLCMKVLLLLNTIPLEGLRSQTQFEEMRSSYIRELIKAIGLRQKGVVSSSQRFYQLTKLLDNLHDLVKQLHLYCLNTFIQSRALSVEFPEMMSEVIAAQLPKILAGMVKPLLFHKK

Glucocorticoid receptor [4] = molecular target: T2, Glucocorticoid receptor; test: Inhibition of glucocorticoid receptor (unknown origin) expressed in baculovirus-infected insect cells by fluorescence polarization assay
[5] = molecular target: T1, Glucocorticoid receptor (Homo sapiens); test: Inhibition of glucocorticoid receptor (unknown origin) expressed in baculovirus-infected insect cells up to 10 uM by fluorescence polarization assay

| Emax [1] | IC50 (Glucocorticoid receptor [2]) | IC50 [3] | IC50 (Progesterone receptor) | IC50 (Glucocorticoid receptor [4]) | inhibition [5] | Compound |
| --- | --- | --- | --- | --- | --- | --- |
| 0% | > 10000 nM | 190 nM | 1500 nM | 10 nM |  | CCC(Cc1cccc2ccccc12)NS(=O)(=O)c1c(C)cc(C)cc1C (stereo unspecified) |
| 0% | > 10000 nM | 150 nM | 1200 nM | 10 nM |  | CCC(Cc1cc(Cl)cc(Cl)c1)NS(=O)(=O)c1c(C)cc(C)cc1C (stereo unspecified) |
| 0% | > 2000 nM | 1000 nM | 2800 nM | 27 nM |  | CC[C@@H](Cc1ccc(O)cc1C)NS(=O)(=O)c1c(C)cc(C)cc1C |
| 80% | 23 nM | 110 nM | 210 nM | 3 nM |  | CCC(Cc1ccc(O)c2ccccc12)NS(=O)(=O)c1c(C)cc(C)cc1C (stereo unspecified) |
|  |  |  |  |  | inactive | Cc1cc(C)c(S(=O)(=O)NC(C)Cc2ccccc2)c(C)c1 (stereo unspecified) |
| 0% | > 10000 nM | 400 nM | 720 nM | 78 nM |  | CCC(Cc1ccc2ccccc2c1)NS(=O)(=O)c1c(C)cc(C)cc1C (stereo unspecified) |
| 36% | > 10000 nM | 360 nM | 7400 nM | 11 nM |  | CCC(Cc1cc(C)cc(C)c1)NS(=O)(=O)c1c(C)cc(C)cc1C (stereo unspecified) |
| 0% | > 2000 nM | 5200 nM | 6400 nM | 120 nM |  | CC[C@@H](Cc1ccc(O)cc1)NS(=O)(=O)c1c(C)cc(C)cc1C |
| 0% | > 10000 nM | 320 nM | > 10000 nM | 25 nM |  | CCC(Cc1cc(C)ccc1C)NS(=O)(=O)c1c(C)cc(C)cc1C (stereo unspecified) |
| 0% | > 2000 nM | 1400 nM | > 10000 nM | 250 nM |  | CCC(Cc1cc(C)c(OC)c(C)c1)NS(=O)(=O)c1c(C)cc(C)cc1C (stereo unspecified) |

Continued, molecule first:

| Compound | Emax [1] | IC50 (Glucocorticoid receptor [2]) | IC50 [3] | IC50 (Progesterone receptor) | IC50 (Glucocorticoid receptor [4]) | inhibition [5] |
| --- | --- | --- | --- | --- | --- | --- |
| CCC(Cc1cc(C)c(O)c(C)c1)NS(=O)(=O)c1c(C)cc(C)cc1C (stereo unspecified) | 58% | 89 nM | 480 nM | 3500 nM | 12 nM |  |
| CCC(Cc1ccc(O)c(C)c1C)NS(=O)(=O)c1c(C)cc(C)cc1C (racemic) | 81% | 15 nM | 240 nM | 860 nM | 5 nM |  |
| CCC(Cc1ccccc1C)NS(=O)(=O)c1c(C)cc(C)cc1C (stereo unspecified) | 0% | > 10000 nM | 700 nM | 4200 nM | 83 nM |  |
| CCC(Cc1ccc(C)cc1C)NS(=O)(=O)c1c(C)cc(C)cc1C (stereo unspecified) | 0% | > 10000 nM | 2400 nM | 8200 nM | 160 nM |  |
| CC[C@@H](Cc1ccc(O)c(C)c1C)NS(=O)(=O)c1c(C)cc(C)cc1C | 77% | 22 nM | 270 nM | 620 nM | 2 nM |  |
| CCC(Cc1cccc(C)c1)NS(=O)(=O)c1c(C)cc(C)cc1C (stereo unspecified) | 0% | > 10000 nM | 400 nM | 5500 nM | 23 nM |  |
| CCC(Cc1cc(F)cc(F)c1)NS(=O)(=O)c1c(C)cc(C)cc1C (stereo unspecified) | 0% | > 10000 nM | 400 nM | 3400 nM | 48 nM |  |
| CCC(Cc1ccc(C)cc1)NS(=O)(=O)c1c(C)cc(C)cc1C (stereo unspecified) | 0% | > 10000 nM | 1100 nM | 3400 nM | 230 nM |  |
| CCC(Cc1ccc(OC)c(C)c1C)NS(=O)(=O)c1c(C)cc(C)cc1C (stereo unspecified) | 0% | > 2000 nM | 330 nM | 2100 nM | 62 nM |  |
| CCC(Cc1c(C)cccc1C)NS(=O)(=O)c1c(C)cc(C)cc1C (stereo unspecified) | 0% | > 10000 nM | > 10000 nM | > 10000 nM | 110 nM |  |
| CC[C@@H](Cc1ccc(O)c(C)c1)NS(=O)(=O)c1c(C)cc(C)cc1C | 0% | > 2000 nM | 2300 nM | 2500 nM | 23 nM |  |
| CCC(Cc1cccc(C)c1C)NS(=O)(=O)c1c(C)cc(C)cc1C (stereo unspecified) | 19% | > 10000 nM | 350 nM | 2000 nM | 10 nM |  |
